Test results reported in patent publication US20210346527A1, “Combination Therapy” (Advanced Accelerator Applications (Italy) SRL, priority 2018, published 2021).

Test system: CA20948 Tumor Model (neuroendocrine tumor cells)
Experiment: In vivo therapy of PRRT +/- Olaparib, CA20948 tumor model
Design: species or system BALB-c immunocompromised mice
Text: FIG. 1 : In vivo therapy of PRRT +/− Olaparib. The FIG. 1A presents the tumor volume after injection in the presence of the vehicle (square), olaparib alone (full circle), PRRT alone (empty circle) or in combination with PARP inhibitor (triangle). The survival proportions are also shown in FIG. 1B after injection in the presence of the vehicle, olaparib alone, PRRT alone or in combination with PARP inhibitor.
Combination therapies using CA20948 Tumor Model
We have xenografted BALB-c immunocompromised mice with neuroendocrine tumor cells. To increase the window of opportunity, we have started PARP inhibitor administration two days prior to PRRT injection for in total 14 days.

Molecule | effect on survival (compared to vehicle) | effect on tumor growth (compared to vehicle) | speed of tumor regrowth (PRRT versus PRRT+olaparib groups) | start of tumor shrinkage (after injection, xenografted mice, PARP inhibitor started two days prior to PRRT injection, in total 14 days)
O=C(c1cc(Cc2n[nH]c(=O)c3ccccc23)ccc1F)N1CCN(C(=O)C2CC2)CC1 [olaparib, Olaparib] | No effect | No effect | – | –
Lutetium (177Lu) oxodotreotide [PRRT] | – | – | the same in both groups | 3 days
